Test results as given in patent publication US20140363438A1, “NEUREGULIN ANTIBODIES AND USES THEREOF” (Genentech, Inc., priority 2011, published 2014).

Tests used:
[1] = test system: lung tumors of LSL-K-rasG12D;p53Fl/+ mice; assay: Lung tumor burden by micro-CT in LSL-K-rasG12D;p53Fl/+ mice; format: in vivo, mouse; details: FIG. 3A-B
Procedure: (§1) LSL-K-ras^G12D;p53^F1/+ were infected with Adeno-Cre virus and allowed to age for 16 weeks post-tumor induction. Baseline CT scans were performed at 16 weeks post-tumor induction (day 0 of study) and mice were grouped such that average starting tumor volume per group were equal. Mice were dosed once a week for three weeks with cisplatin (7 mg/kg) or phosphate-buffered saline, and bi-weekly with HER4ECD-Fc (25 mg/kg) or anti-ragweed IgG2A (25 mg/kg) for the duration of the study. Serial CT scans were performed at days 14, 45, and 66.
Two micro-CT systems (vivaCT 40 and vivaCT 75, Scanco Medical, Switzerland) were utilized for longitudinal lung imaging. Animals were randomized between micro-CT systems and rescanned on the same system used for baseline imaging. […] The imaging data were evaluated in the coronal plane using the image analysis software package Analyze (AnalyzeDirect, Inc., Lenexa, Kans., USA). Once the largest cross-sectional plane of each tumor was identified, estimates of maximal tumor diameter (d1) and the largest perpendicular diameter (d2) were determined. The total tumor burden was calculated as the sum of the cross-product of the directional estimates (d1×d2) of all the tumors. […]

[2] = test system: Calu3-shHER3 xenograft tumors; assay: Calu3-shHER3 xenograft; format: in vivo, human; details: Calu3-shHER3, dox 2 gm/L in drinking water
Procedure: To confirm this role in vivo, studies using Calu3-shHER3 and Calu3-shHER4 xenograft models treated with either sucrose or dox were performed. Mice with established Calu3-shHER3 or Calu3-shHer4 xenograft tumors were administered vehicle (sucrose) or dox (2 gm/L) in their drinking water ad libitum (n=14/group).

[3] = test system: Calu3-shNRG1 xenograft tumors; assay: Calu3-shNRG1 xenograft, NRG1 knockdown +/- chemotherapy; format: in vivo, human; details: dox induces NRG1 knockdown, chemotherapy paclitaxel + cisplatin
Procedure: Tumor cells (10-20 million) were transplanted into right flank of athymic nude mice. When tumor size reached ˜200 mm^3, the mice were divided into different treatment groups. Mice were then treated with either vehicle or chemotherapy (paclitaxel, i.v.+cisplatin, i.p.) for the initial studies. The chemotherapy dosing regimen was paclitaxel 20 mg/kg i.v. every other day for 5 doses and cisplatin 5 mg/kg i.p. on days 1 and 7 for the Calu3 model and days 1 and 14 for the H441 model. Regressed tumors and time matched vehicle controls were collected at least 1 week after the last dose of chemo. Tumors were dissociated using dispase/collagenase and samples were FACS sorted to collect the GFP positive tumor cells. For the NRG1 knockdown studies, the treatment groups were: sucrose, doxycycline (dox), chemotherapy+sucrose, and chemotherapy+doxycycline. […]
To determine the efficacy of NRG1-targeting in the Calu3 model, Calu3-shNRG1 tumor bearing mice were assigned to four groups; 1) vehicle+sucrose, 2) vehicle+dox, 3) chemotherapy+sucrose, and 4) chemotherapy+dox. […] Tumor volume was measured twice a week for the duration of the study.
The effect of NRG1 on tumor relapse was assessed by comparing the growth of tumors in the chemotherapy+sucrose with those in the chemotherapy+dox group. […] Therefore, the measured volumes were considerably larger than the actual tumor volume in the dox-treated groups. […]

NRG1/HER3 signaling = assay: HER4-ECD on serum starved LKPH1 and LKPH2 cells, p-HER3 Western blot; format: cell-based, mouse
Procedure: To induce shRNA expression, stable cell lines harboring doxcycline-inducible shNRG1 or shLuciferase were grown in 1 ug/ml doxcycline for a total of 6 days. The first day of induction cells were grown in 10% FBS, followed by a titration of FBS over the course of 4 more days. The cells were then completely serum starved during the last 6 hours of growth. Cells were then processed for RNA extraction or western blotting. For HER4ECD studies in mouse lung tumor cell lines, LKPH cells were grown in serum starved conditions for 24 hours prior to addition of HER4ECD at a concentration of 2 mg/ml. LKPH cells were then incubated for another 48 hours prior to processing for Western blotting. Addition of exogenous NRG1 on H441 cells were performed as follows: H441 cells were serum starved for 18 hours prior to addition of 1 uM recombinant human NRG1 beta-1 extracellular domain (R&D systems) or 1 uM anti-ragweed IgG2A as the control. Ten minutes after addition of NRG1 or ragweed, cells were processed for Western blotting.
To test the role of NRG1 signaling in promoting relapse after chemotherapy in the LSL-K-ras^G12D;p53^F1/+ mouse model, a ligand-trap approach to sequester NRG1 and prevent its binding to receptors in vivo was employed. A fusion of the human HER4 extracellular domain (HER4-ECD) fused to murine IgG2A Fc was generated. […]

[4] = test system: lung tumors of LSL-K-rasG12D;p53Fl/Fl mice; assay: Lung tumor burden by micro-CT in LSL-K-rasG12D;p53Fl/Fl mice; format: in vivo, mouse; details: FIG. 3C
Procedure: as §1
Two micro-CT systems (vivaCT 40 and vivaCT 75, Scanco Medical, Switzerland) were utilized for longitudinal lung imaging. Animals were randomized between micro-CT systems and rescanned on the same system used for baseline imaging. […] The imaging data were evaluated in the coronal plane using the image analysis software package Analyze (AnalyzeDirect, Inc., Lenexa, Kans., USA). Once the largest cross-sectional plane of each tumor was identified, estimates of maximal tumor diameter (d1) and the largest perpendicular diameter (d2) were determined. The total tumor burden was calculated as the sum of the cross-product of the directional estimates (d1×d2) of all the tumors.
A second study was carried out in LSL-K-ras^G12D;p53^F1/F1 mice as described above. […] Combination activity was assessed using an unpaired t-test against its monotherapy * p<0.05, ** p<0.01.

NRG1β = biological target: T1, NRG1β (Homo sapiens, UniProt Q02297); assay: Inhibition of 125I-HRG (NRG1β) binding to HER3-ECD-Fc; details: parental anti-NRG1 antibodies, FIG. 6
T1 sequence (Q02297 177-244 isoform Q02297-6 limits assumed): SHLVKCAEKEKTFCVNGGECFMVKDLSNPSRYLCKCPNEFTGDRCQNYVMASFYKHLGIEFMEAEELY
Procedure: The antibodies were tested for their ability to inhibit NRG1β binding to HER3-Fc. 125I-HRG was generated at Genentech as described previously (Sliwkowski et al JBC 1994). Binding assays were performed in Nunc break-apart strip wells (Thermo-Fisher Scientific, Rochester, N.Y.). Plates were coated at 4° C. overnight with 250 ng/well of HER3-ECD-Fc fusion protein in carbonate buffer (pH 9.6). Plates were rinsed twice with wash buffer (PBS/0.05% Tween 20) and blocked with 100 μL PBS including 1% bovine serum albumin (BSA) for 30 minutes. Increasing concentrations of anti-NRG1 antibodies in RPMI 1640 medium (Invitrogen; Carlsbad, Calif.) with 0.2% BSA were pre-bound to HER3-ECD-Fc. 125I-HRG (specific activity: 266 mCi/mg, 75,000 cpm/well) was added immediately after in a total assay volume of 130 μL. Plates were incubated for 2 hours at room temperature, rinsed twice, and individual wells were counted using a 100 Series Iso Data γ-counter. Samples were assayed in triplicates. Plotting was performed using KaleidaGraph 3.6 software. […]
The affinity matured variants were tested for their ability to block HRGβ binding to HER3-Fc. […] Plates were incubated for 2 hours at room temperature, rinsed twice, and individual wells were counted using a 100 Series Iso Data γ-counter. […]

HRG1a = biological target: T2, HRG1a (Homo sapiens, UniProt Q02297); assay: Competition assay with 538.24.17 for HRG1a; format: binding; details: FIG. 12
T2 sequence (Q02297 177-241): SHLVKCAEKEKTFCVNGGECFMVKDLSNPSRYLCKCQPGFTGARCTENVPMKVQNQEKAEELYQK
Procedure: (§2) A competition assay was performed to determine the binding specificity of the 526.09 and 526.02 antibodies.

HRG1β = assay: Competition assay with 538.24.17 for HRG1β; format: binding; details: FIG. 12
Procedure: as §2

**Q.** With N.N.[Cl][Pt][Cl] [cisplatin] as the molecule, how does the “tumor growth (average tumor burden and tumor growth rate)” value [1] read?
**A.** not significantly different

**Q.** How did the “tumor volume doubling time (TDT)” value [2] turn out when C[C@H]1c2cccc(O)c2C(=O)C2=C(O)[C@]3(O)C(=O)C(C(N)=O)=C(O)[C@@H](N(C)C)[C@@H]3[C@@H](O)[C@@H]21 [dox, doxycycline] was run?
**A.** 19 days

**Q.** C[C@H]1c2cccc(O)c2C(O)=C2C(=O)[C@]3(O)C(O)=C(C(N)=O)C(=O)[C@@H](N(C)C)[C@@H]3[C@@H](O)[C@@H]21 [vehicle+dox] was tested. Which “tumor volume doubling time (TDT)” value [3] did it give?
**A.** 44.5 days

**Q.** With “HER4-ECD: fusion of the human HER4 extracellular domain to murine IgG2A Fc, ligand trap to sequester NRG1” as the molecule, how does the p-HER3 levels (NRG1/HER3 signaling) read?
**A.** diminished

**Q.** And the “tumor burden by micro-CT on day 28” value [4]?
**A.** no effect

B1: 526.90: parental anti-NRG1 antibody; VH SEQ ID NO: 52, VL SEQ ID NO: 53 (antibody, V domains shown)
VH: EVQLVESGGGLVQPGGSLRLSCAASGFTFSGNAMSWVRQAPGKGLEWVSWIYPSGGNTYYADSVKGRFTISADTSKNTAYLQMNSLRAEDTAVYYCARSYILSYPSITWAFDYWGQGTLVTVSS
VL: DIQMTQSPSSLSASVGDRVTITCRASQSISSYLAWYQQKPGKAPKLLIYGASSRASGVPSRFSGSGSGTDFTLTISSLQPEDFATYYCQQSYSTPITFGQGTKVEIKR
modifications: Heavy chain variable region; Light chain variable region
**Q.** What does the source list for B1?
**A.** dose-dependent inhibition of NRGβ binding to HER3-Fc (NRG1β): most potent blockers; competition with 538.24.17 for HRG1a (HRG1a): competes; competition with 538.24.17 for HRG1β (HRG1β): competes
